Results published in ChEMBL document CHEMBL4507268 (2021).

Tests used:
Settings in all cases: Compound concentration 1000.0 nM
[1] = molecular target: BMP-2-inducible protein kinase (Homo sapiens) (UniProt Q9NSY1)
[2] = molecular target: Tyrosine-protein kinase JAK1 (Homo sapiens) (UniProt P23458)
[3] = molecular target: Mitogen-activated protein kinase kinase kinase kinase 4 (Homo sapiens) (UniProt O95819)
[4] = molecular target: Tyrosine-protein kinase SYK (Homo sapiens) (UniProt P43405)
[5] = molecular target: Ribosomal protein S6 kinase alpha-6 (Homo sapiens) (UniProt Q9UK32)
[6] = test system: Receptor-type tyrosine-protein kinase FLT3 (Homo sapiens), P36888 [UNDEFINED MUTATION]
[7] = molecular target: T1, Serine/threonine-protein kinase TAO2 (Homo sapiens) (UniProt Q9UL54)
T1 sequence (whole entry): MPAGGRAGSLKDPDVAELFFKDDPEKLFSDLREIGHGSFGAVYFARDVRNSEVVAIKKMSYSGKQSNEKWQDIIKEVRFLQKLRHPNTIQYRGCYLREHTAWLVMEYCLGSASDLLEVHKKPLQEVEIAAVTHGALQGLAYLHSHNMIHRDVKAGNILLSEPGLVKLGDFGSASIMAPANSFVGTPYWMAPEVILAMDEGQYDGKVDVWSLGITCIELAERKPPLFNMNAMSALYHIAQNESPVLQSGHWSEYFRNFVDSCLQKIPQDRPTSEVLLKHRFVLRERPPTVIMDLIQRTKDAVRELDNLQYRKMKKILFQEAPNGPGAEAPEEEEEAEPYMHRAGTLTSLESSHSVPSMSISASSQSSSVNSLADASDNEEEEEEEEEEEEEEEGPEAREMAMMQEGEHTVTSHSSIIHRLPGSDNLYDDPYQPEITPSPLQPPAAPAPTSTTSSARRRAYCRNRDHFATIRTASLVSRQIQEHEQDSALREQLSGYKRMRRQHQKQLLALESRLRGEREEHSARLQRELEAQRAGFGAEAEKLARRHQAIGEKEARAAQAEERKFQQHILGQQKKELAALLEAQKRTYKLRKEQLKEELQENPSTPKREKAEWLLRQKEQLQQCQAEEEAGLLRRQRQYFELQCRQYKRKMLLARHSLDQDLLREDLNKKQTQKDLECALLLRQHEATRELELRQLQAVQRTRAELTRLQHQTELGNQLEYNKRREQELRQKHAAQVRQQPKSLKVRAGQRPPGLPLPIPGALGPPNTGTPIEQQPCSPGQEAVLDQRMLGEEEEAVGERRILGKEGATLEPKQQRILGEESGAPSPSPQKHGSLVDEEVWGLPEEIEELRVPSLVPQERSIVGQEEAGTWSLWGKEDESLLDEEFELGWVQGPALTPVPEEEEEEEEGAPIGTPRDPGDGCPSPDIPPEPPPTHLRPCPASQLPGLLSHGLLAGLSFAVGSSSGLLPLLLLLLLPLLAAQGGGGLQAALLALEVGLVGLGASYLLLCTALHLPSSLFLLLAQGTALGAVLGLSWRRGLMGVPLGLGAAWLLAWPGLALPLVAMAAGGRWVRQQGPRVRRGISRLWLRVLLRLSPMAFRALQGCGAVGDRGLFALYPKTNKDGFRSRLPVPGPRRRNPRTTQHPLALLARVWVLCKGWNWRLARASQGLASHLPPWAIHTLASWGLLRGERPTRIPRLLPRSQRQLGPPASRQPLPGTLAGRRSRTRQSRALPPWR

[8] = test system: Epidermal growth factor receptor (Homo sapiens), P00533 [L858R,T790M]
[9] = molecular target: G protein-coupled receptor kinase 4 (Homo sapiens) (UniProt P32298)
[10] = molecular target: Cyclin-dependent kinase 13 (Homo sapiens) (UniProt Q14004)
[11] = molecular target: Myosin-IIIa (Homo sapiens) (UniProt Q8NEV4)
[12] = test system: Epidermal growth factor receptor (Homo sapiens), P00533 [L858R]
[13] = molecular target: Mitogen-activated protein kinase kinase kinase 15 (Homo sapiens) (UniProt Q6ZN16)
[14] = molecular target: Wee1-like protein kinase (Homo sapiens) (UniProt P30291)
[15] = molecular target: Cyclin-dependent kinase-like 3 (Homo sapiens) (UniProt Q8IVW4)
[16] = molecular target: Calcium/calmodulin-dependent protein kinase type 1G (Homo sapiens) (UniProt Q96NX5)
[17] = molecular target: Phosphatidylinositol 4-phosphate 5-kinase type-1 gamma (Homo sapiens) (UniProt O60331)
[18] = test system: Leucine-rich repeat serine/threonine-protein kinase 2 (Homo sapiens), Q5S007 [G2019S]
[19] = molecular target: Platelet-derived growth factor receptor alpha (Homo sapiens) (UniProt P16234)
[20] = molecular target: Homeodomain-interacting protein kinase 2 (Homo sapiens) (UniProt Q9H2X6)
[21] = molecular target: Serine/threonine-protein kinase 24 (Homo sapiens) (UniProt Q9Y6E0)

Measured: residual activity

Myosin-IIIa (Homo sapiens), sequence (Q8NEV4 whole entry): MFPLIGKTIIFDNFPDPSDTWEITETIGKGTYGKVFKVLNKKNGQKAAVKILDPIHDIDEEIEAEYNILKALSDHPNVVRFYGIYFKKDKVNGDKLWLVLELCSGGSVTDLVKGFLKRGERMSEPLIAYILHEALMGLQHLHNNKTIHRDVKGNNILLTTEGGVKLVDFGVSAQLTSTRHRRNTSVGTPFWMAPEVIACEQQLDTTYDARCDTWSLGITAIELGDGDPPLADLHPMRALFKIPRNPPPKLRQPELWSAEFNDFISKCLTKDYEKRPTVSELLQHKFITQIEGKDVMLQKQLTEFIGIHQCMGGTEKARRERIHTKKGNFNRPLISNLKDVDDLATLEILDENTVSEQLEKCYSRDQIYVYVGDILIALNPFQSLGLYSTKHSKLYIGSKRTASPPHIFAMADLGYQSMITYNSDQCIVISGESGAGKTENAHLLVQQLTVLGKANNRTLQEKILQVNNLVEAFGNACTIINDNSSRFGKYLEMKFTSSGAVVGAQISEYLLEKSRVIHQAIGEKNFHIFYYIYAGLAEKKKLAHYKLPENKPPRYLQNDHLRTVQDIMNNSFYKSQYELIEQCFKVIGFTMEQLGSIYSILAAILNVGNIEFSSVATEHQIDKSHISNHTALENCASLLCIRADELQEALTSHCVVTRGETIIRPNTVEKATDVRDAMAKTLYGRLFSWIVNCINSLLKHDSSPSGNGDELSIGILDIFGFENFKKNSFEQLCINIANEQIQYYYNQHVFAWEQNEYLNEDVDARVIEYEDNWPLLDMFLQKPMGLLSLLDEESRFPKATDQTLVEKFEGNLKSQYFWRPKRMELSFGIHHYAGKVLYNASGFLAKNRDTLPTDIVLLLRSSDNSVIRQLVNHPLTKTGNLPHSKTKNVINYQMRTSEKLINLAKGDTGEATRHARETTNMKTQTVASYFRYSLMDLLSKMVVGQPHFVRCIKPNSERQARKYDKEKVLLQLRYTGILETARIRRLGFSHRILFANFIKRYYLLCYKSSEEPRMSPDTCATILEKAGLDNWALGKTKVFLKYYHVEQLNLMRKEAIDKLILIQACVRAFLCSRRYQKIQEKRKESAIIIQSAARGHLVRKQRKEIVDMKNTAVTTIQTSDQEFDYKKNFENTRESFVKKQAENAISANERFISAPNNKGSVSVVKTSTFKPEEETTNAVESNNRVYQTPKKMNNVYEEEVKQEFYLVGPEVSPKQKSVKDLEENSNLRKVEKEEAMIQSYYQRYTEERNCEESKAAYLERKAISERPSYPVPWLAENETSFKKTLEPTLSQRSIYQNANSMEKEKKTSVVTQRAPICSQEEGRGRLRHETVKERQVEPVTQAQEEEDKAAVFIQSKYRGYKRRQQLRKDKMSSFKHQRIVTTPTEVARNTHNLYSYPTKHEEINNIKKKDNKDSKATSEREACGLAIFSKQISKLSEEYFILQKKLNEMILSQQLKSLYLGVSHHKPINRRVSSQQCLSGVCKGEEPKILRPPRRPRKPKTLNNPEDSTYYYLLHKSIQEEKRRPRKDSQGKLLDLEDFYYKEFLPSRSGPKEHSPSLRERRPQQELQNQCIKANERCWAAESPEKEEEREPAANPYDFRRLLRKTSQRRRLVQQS
Ribosomal protein S6 kinase alpha-6 (Homo sapiens), sequence (Q9UK32 whole entry): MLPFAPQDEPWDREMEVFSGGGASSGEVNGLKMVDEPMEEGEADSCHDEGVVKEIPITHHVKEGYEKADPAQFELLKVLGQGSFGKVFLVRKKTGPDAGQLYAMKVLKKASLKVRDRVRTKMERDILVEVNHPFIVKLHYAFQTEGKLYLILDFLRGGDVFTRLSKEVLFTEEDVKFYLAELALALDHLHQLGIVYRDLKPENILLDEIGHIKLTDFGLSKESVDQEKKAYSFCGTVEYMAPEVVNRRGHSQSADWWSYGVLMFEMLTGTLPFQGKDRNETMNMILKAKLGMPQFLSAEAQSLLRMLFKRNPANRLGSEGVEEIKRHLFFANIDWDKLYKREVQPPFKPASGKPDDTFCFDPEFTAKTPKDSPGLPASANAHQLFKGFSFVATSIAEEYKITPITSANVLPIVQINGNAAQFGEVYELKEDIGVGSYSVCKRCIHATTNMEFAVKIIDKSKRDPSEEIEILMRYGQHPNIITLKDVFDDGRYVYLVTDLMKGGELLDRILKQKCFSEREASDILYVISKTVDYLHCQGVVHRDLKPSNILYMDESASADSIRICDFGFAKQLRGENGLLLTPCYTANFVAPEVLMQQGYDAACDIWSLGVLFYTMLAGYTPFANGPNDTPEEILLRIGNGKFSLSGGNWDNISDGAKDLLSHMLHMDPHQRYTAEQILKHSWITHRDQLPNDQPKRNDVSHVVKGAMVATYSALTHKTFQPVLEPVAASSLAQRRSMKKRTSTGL
Mitogen-activated protein kinase kinase kinase kinase 4 (Homo sapiens), sequence (O95819 2-1239 limits assumed): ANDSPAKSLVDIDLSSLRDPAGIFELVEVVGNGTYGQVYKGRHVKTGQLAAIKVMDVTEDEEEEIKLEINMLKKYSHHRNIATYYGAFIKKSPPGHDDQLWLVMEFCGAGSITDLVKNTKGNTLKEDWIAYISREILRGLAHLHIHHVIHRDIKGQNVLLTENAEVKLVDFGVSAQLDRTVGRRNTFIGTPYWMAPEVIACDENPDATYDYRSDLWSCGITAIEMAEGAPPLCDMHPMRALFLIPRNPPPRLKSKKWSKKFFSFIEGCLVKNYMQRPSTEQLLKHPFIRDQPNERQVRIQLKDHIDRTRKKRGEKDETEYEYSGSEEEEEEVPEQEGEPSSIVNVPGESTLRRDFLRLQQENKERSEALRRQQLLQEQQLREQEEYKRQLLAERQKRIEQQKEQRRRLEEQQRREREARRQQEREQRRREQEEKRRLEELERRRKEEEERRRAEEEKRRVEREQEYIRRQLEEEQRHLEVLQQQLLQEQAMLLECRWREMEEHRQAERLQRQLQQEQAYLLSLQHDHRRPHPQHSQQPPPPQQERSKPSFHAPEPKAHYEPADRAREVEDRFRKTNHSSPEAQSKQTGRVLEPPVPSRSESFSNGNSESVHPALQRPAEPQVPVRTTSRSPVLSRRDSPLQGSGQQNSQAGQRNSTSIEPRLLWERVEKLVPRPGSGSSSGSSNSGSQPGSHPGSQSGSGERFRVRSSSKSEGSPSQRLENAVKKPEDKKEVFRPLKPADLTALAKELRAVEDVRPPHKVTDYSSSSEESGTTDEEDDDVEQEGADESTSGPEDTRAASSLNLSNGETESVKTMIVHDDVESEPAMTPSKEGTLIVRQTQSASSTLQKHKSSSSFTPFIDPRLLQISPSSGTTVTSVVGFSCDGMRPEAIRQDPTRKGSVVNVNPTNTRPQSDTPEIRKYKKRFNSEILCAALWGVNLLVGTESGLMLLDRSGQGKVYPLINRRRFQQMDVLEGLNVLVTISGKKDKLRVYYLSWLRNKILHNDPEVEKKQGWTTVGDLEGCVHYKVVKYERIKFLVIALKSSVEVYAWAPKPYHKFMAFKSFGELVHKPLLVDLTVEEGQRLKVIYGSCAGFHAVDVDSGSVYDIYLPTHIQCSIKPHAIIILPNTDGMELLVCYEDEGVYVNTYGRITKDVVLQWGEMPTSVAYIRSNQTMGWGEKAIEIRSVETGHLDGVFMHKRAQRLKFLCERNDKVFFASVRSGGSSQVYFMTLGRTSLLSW
Serine/threonine-protein kinase 24 (Homo sapiens), sequence (Q9Y6E0 whole entry, looked up): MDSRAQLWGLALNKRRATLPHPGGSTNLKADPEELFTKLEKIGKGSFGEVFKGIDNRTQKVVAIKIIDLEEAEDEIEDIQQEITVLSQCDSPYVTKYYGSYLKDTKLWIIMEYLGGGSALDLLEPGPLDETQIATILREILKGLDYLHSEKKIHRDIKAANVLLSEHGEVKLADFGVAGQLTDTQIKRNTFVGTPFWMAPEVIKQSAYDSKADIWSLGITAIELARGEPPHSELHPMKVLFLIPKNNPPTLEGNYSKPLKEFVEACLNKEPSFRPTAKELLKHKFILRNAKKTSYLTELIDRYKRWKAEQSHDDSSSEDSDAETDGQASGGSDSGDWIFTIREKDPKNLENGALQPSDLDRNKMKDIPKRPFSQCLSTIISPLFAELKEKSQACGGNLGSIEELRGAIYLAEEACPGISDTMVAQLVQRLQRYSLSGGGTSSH
Wee1-like protein kinase (Homo sapiens), sequence (P30291 whole entry, looked up): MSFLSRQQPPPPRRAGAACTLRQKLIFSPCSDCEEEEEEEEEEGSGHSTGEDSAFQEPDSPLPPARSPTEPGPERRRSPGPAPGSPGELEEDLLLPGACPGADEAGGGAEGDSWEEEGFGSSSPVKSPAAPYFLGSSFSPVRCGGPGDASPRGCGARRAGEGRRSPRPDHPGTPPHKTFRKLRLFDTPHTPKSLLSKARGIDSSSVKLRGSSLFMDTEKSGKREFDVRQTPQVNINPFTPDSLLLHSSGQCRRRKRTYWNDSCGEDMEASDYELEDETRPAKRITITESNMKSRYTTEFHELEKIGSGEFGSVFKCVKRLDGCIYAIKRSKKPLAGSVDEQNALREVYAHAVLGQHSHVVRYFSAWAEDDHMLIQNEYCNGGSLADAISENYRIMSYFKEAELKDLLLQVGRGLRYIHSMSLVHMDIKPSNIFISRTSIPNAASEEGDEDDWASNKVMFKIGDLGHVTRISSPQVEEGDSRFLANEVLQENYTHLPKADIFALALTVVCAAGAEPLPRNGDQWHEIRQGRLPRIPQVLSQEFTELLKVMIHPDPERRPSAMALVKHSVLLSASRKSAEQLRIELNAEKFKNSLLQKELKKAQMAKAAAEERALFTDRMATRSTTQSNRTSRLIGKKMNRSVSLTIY

Cc1nc(C2CCN(C(=O)c3ccc(OC(F)(F)F)cc3N)CC2)c2ncc(N3CCN(C)CC3)cc2n1 [BAY-693]
inactive: [1] 100% | [2] 95% | [3] 100% | [4] 98% | [5] 100% | [6] 86% | [7] 100% | [8] 88% | [9] 96% | [10] 88% | [11] 100% | [12] 89% | [13] 92% | [14] 94% | [15] 92% | [16] 100% | [17] 94% | [18] 100% | [19] 100% | [20] 93% | [21] 97%

CN1CCN(c2cnc3c(C4CCN(C(=O)c5ccc(OC(F)(F)F)cc5N)CC4)ncnc3c2)CC1 [BAY-885]
inactive: [1] 97% | [2] 100% | [3] 100% | [4] 100% | [5] 100% | [6] 93% | [7] 100% | [8] 95% | [9] 100% | [10] 62% | [11] 100% | [12] 100% | [13] 95% | [14] 96% | [15] 92% | [16] 100% | [17] 100% | [18] 100% | [19] 100% | [20] 100% | [21] 100%
